Measured values reported in ChEMBL document CHEMBL1201862, “PubChem BioAssay data set” (2004).
The source made the active and inactive calls.

How the values were obtained:
Cytochrome P450 2D6 = Cytochrome P450 2D6 (Homo sapiens, UniProt P10635);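 further: CYP2D6 member of a cytochrome P450 panel assay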
Cytochrome P450 3A4 = Cytochrome P450 3A4 (Homo sapiens, UniProt P08684);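 further: CYP3A4 tested as one member of a cytochrome P450 panel screen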
[1] = target: T1, Tyrosine-protein phosphatase non-receptor type 22 (Homo sapiens, UniProt Q9Y2R2); assay type: functional
T1 sequence (Q9Y2R2 whole entry): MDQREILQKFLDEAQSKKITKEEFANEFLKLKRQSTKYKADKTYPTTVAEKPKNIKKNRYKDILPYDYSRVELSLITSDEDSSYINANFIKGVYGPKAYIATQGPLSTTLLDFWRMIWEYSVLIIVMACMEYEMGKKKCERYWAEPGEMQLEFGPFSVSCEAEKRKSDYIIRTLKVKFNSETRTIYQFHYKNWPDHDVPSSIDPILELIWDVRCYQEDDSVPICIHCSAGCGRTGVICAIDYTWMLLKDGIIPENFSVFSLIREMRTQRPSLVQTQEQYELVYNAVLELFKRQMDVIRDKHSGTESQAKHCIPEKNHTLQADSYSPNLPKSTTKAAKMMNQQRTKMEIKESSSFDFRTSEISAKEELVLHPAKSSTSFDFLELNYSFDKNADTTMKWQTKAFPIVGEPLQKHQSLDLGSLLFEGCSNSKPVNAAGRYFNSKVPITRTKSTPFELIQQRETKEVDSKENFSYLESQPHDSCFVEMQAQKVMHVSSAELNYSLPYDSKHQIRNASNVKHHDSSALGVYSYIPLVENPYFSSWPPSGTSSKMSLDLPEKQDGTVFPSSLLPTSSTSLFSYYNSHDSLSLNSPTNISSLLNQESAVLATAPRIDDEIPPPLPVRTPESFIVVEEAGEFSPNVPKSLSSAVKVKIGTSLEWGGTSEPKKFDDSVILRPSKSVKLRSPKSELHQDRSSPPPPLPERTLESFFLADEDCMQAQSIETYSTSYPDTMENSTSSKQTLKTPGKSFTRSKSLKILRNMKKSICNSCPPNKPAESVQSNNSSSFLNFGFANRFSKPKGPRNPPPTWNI

[2] = target: T2, Tyrosine-protein phosphatase non-receptor type 7 (Homo sapiens, UniProt P35236); assay type: functional
T2 sequence (P35236 whole entry): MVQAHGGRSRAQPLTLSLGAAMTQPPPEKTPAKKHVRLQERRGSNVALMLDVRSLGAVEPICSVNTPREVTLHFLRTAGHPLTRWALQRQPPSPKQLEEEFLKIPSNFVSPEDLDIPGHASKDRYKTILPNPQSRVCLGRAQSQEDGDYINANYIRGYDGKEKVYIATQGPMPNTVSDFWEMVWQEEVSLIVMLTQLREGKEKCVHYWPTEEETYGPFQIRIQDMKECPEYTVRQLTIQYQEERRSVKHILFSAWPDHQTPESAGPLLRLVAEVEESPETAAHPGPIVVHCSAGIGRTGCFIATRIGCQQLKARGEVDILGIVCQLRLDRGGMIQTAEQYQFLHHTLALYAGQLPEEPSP

[3] = target: T1, Tyrosine-protein phosphatase non-receptor type 22; assay type: functional; remark: listed apart in the source
Vero [4] = experiment: cells; assay type: functional, cell-based; conditions: Chlorocebus sabaeus
Paired box protein Pax-8 = Paired box protein Pax-8 (Homo sapiens, UniProt Q06710); experiment: PAX8 transcriptional activity inhibition in RMG-I – RMG-I cells, luciferase, cherry-pick, dose response (AID 687027); assay type: functional, cell-based;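 further: luciferase reporter driven by Pax8 target thyroperoxidase promoter measured by SteadyGlo luminescence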
Vero [5] = experiment: cells; assay type: functional; conditions: Chlorocebus sabaeus
[6] = target: Glucose-6-phosphate 1-dehydrogenase (Homo sapiens, UniProt P11413); experiment: inhibition of Homo sapiens G6PD, dose series – biochemical, fluorescence, selectivity assay for P. falciparum G6PD inhibitor project, dose response (AID 504792); assay type: functional
HEK293 [7] = experiment: cells; assay type: functional, cell-based; conditions: Homo sapiens
HEK293 [8] = experiment: inhibition of NOD1-driven NF-kB reporter – cell-based, luminescence, uHTS, primary screen (AID 1578); assay type: functional; conditions: Homo sapiens
HEK293 [9] = experiment: NOD2 signaling inhibitors in MDP-stimulated cells, cell-based, uHTS, luminescence (AID 2001); assay type: functional; conditions: Homo sapiens
HEK293 [10] = experiment: cells; assay type: functional, cell-based; conditions: Homo sapiens; remark: listed apart in the source
HEK293 [11] = experiment: cells; assay type: functional, cell-based; conditions: Homo sapiens; remark: listed apart in the source
[12] = target: Nucleotide-binding oligomerization domain-containing protein 2 (Homo sapiens, UniProt Q9HC29); experiment: inhibition of NOD2-driven NF-kB reporter – cell-based, luminescence, uHTS, HEK293 (AID 1566); assay type: functional
Cytochrome P450 2C9 = Cytochrome P450 2C9 (Homo sapiens, UniProt P11712)
Cytochrome P450 2C19 = Cytochrome P450 2C19 (Homo sapiens, UniProt P33261); experiment: Cytochrome panel assay with activity outcomes. Panel member name: p450-cyp2c19 Compounds with AC50 equal or less than 10 uM are considered active; assay type: functional; conditions: read-out: AC50
Cytochrome P450 1A2 = target: T3, Cytochrome P450 1A2 (Homo sapiens, UniProt P05177);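 further: PubChem cytochrome P450 panel assay, CYP1A2 panel member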
T3 sequence (P05177 whole entry): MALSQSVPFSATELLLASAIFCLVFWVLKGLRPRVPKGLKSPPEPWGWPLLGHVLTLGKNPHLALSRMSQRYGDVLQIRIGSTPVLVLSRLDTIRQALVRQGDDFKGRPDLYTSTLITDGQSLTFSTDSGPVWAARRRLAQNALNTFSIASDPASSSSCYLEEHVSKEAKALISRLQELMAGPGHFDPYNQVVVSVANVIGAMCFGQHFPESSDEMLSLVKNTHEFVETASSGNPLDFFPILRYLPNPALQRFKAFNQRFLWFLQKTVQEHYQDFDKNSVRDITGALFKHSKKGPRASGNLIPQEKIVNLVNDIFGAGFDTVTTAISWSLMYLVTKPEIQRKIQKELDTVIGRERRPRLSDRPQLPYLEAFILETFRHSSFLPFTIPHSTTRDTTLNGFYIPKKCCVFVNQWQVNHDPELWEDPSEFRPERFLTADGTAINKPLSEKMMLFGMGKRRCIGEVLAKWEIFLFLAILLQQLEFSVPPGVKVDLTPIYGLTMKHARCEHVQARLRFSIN

[13] = target: Luciferin 4-monooxygenase (Photinus pyralis, UniProt P08659); experiment: inhibition of purified Photinus pyralis luciferase – biochemical, luminescence, dose response (AID 1891)
[14] = Luminescence Cell-Based Dose Confirmation HTS to Identify Inhibitors of Platelet Dense Granule Release. [Related pubchem assays: 1663 (Primary HTS), 1678 (Summary of Project)]; assay type: functional
[15] = target: T4, Lysine-specific demethylase 4C (Homo sapiens, UniProt Q9H3R0); experiment: inhibition of JMJD2C H3K9me3 demethylation – biochemical, DELFIA europium, cherry-picked samples, dose response (AID 488835); assay type: functional
T4 sequence (Q9H3R0 whole entry): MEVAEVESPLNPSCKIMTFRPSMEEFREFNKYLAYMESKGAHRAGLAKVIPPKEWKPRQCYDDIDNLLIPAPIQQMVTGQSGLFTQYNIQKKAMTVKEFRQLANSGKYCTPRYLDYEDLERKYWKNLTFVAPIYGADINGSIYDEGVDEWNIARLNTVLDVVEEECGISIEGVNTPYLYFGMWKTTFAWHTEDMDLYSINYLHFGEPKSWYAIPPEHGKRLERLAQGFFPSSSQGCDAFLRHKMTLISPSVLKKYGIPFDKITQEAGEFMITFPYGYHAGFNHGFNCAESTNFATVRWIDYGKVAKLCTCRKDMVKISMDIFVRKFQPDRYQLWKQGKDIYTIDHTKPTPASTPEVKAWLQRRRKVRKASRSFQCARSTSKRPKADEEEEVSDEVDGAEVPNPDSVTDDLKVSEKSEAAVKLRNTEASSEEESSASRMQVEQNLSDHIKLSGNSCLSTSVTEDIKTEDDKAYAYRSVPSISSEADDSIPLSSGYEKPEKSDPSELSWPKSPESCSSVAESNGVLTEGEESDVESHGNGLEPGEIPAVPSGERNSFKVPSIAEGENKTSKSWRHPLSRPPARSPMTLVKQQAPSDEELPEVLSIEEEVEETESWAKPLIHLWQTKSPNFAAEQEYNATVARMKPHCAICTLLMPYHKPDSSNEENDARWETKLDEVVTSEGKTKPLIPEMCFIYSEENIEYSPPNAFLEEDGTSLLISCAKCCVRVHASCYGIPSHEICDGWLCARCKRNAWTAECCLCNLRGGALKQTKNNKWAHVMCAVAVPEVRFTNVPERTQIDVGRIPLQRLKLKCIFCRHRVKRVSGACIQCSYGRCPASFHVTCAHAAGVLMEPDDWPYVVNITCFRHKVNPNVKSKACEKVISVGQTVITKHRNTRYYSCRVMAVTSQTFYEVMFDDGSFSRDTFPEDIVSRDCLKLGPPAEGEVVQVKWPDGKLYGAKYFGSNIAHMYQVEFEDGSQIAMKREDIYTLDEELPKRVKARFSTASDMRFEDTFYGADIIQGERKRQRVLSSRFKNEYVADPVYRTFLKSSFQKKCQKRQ

Chain of Cytochrome P450 2D6 (P10635 whole entry): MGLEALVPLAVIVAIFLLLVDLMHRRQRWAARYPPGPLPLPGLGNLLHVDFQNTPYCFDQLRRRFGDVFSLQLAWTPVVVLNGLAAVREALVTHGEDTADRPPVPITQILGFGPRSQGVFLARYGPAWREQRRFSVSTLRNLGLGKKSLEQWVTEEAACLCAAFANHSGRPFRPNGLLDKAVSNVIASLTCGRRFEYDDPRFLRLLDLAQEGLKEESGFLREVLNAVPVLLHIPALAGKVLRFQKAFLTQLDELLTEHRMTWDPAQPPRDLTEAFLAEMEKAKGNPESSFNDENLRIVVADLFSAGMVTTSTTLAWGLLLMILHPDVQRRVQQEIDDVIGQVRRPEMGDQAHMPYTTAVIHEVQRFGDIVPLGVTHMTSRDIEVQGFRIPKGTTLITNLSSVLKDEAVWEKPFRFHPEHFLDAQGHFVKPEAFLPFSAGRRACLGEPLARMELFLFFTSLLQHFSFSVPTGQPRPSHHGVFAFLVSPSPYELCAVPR
Chain of Cytochrome P450 2C9 (P11712 whole entry): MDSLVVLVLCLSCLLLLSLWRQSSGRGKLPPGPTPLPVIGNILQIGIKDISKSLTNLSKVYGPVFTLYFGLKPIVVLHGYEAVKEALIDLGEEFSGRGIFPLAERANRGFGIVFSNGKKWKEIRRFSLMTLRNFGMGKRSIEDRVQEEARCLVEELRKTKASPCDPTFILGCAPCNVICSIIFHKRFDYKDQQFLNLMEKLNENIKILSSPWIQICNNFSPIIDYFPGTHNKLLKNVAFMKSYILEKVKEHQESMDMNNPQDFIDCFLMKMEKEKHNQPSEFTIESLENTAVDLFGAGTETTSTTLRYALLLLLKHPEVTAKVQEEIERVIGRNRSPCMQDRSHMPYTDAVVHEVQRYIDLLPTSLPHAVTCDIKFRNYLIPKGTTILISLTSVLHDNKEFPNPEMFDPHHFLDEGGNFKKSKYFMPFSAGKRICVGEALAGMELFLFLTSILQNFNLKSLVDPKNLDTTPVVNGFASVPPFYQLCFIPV
Chain of Nucleotide-binding oligomerization domain-containing protein 2 (Q9HC29 whole entry, the tested form may be a part): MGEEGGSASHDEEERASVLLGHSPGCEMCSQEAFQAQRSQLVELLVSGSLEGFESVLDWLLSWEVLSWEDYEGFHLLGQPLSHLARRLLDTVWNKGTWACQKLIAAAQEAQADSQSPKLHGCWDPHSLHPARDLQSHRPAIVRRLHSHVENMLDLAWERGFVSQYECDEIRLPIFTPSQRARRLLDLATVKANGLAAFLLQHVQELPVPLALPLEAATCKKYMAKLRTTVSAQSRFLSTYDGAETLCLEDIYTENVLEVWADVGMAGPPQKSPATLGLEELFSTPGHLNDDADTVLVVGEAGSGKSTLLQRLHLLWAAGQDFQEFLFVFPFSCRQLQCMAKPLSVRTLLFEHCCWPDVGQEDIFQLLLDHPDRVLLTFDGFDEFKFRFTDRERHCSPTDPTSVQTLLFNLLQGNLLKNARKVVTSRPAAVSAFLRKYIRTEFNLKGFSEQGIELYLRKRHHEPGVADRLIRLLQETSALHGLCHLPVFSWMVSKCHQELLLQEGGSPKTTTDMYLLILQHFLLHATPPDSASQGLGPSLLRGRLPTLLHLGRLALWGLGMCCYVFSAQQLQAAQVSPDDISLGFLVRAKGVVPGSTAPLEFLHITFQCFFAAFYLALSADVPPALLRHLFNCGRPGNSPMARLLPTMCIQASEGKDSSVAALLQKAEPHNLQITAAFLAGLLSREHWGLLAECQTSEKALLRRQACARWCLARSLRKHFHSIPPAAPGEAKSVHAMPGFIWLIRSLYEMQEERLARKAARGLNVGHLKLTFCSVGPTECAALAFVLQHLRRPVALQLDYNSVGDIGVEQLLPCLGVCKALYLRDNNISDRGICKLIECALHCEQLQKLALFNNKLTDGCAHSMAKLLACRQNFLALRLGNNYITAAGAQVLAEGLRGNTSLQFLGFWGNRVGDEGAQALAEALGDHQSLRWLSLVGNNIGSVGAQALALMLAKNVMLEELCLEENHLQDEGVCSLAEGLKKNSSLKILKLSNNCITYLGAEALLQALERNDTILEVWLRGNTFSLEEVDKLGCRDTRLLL
Chain of Glucose-6-phosphate 1-dehydrogenase (P11413 whole entry): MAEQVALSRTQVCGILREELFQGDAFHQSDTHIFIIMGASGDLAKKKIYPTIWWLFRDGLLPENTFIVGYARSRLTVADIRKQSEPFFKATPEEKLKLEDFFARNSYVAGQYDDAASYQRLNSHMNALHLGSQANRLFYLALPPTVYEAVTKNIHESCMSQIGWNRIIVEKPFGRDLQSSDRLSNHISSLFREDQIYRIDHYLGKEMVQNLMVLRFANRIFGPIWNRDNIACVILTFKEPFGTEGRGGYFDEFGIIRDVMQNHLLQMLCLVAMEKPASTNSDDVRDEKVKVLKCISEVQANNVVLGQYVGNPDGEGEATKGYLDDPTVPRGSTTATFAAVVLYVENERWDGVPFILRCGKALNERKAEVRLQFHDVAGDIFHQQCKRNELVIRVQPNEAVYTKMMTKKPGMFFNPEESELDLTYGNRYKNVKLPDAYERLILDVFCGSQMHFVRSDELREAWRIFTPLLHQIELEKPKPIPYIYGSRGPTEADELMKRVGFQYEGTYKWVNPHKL
Chain of Luciferin 4-monooxygenase (P08659 whole entry): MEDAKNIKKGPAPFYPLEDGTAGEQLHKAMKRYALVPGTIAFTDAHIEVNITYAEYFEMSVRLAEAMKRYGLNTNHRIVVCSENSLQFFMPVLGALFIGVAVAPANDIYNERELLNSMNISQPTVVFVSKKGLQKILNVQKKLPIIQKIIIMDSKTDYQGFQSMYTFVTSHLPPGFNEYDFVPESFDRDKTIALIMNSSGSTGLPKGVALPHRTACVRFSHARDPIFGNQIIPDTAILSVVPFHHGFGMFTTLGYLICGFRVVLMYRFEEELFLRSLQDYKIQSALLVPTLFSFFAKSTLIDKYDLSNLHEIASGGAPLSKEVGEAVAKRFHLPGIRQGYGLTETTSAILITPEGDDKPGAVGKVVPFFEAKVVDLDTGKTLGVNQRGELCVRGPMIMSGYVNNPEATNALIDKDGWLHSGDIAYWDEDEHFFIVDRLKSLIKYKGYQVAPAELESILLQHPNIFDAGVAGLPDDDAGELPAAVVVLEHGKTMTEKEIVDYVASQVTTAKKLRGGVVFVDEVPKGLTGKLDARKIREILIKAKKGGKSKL
Chain of Cytochrome P450 2C19 (P33261 whole entry): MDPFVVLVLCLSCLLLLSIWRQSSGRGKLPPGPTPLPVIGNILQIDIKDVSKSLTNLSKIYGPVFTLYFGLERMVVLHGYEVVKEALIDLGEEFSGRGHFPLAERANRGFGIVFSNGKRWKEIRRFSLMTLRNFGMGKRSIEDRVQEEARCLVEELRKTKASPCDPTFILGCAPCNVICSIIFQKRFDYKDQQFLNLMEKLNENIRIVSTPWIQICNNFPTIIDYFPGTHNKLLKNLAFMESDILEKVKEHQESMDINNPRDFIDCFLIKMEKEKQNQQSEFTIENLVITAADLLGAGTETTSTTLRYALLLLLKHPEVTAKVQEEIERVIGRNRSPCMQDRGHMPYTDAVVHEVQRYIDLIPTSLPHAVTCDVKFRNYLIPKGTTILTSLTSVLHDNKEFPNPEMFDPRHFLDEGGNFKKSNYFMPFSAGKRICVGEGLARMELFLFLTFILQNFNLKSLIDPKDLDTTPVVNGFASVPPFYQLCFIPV
Chain of Cytochrome P450 3A4 (P08684 whole entry): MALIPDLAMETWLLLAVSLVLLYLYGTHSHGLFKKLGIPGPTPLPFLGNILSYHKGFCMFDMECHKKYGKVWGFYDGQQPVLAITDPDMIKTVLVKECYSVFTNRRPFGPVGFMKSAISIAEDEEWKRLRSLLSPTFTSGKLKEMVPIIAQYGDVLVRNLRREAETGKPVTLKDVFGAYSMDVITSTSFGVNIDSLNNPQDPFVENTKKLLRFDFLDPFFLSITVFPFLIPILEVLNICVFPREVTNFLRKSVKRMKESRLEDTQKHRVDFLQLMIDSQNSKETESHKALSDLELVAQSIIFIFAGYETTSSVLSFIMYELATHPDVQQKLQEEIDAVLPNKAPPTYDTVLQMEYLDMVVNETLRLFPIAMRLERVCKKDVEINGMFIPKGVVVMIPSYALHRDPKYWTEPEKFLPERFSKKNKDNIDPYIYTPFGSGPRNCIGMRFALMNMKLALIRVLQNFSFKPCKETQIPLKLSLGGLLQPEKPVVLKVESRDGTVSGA
Chain of Paired box protein Pax-8 (Q06710 whole entry): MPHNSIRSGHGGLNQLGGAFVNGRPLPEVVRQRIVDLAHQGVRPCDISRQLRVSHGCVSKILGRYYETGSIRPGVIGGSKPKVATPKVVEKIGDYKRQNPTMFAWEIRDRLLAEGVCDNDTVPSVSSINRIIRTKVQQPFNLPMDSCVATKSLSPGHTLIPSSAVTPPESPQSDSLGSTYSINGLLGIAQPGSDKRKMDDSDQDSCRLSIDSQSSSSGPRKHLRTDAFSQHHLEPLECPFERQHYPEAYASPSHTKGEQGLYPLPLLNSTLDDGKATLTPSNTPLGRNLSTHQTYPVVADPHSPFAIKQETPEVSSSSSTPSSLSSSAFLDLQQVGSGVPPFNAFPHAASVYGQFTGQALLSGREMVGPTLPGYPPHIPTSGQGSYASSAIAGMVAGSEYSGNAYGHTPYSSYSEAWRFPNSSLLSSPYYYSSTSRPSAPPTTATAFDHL

In the case of `Cc1cc(C)n2nc(SCN3C(=O)c4ccccc4C3=O)nc2n1`, the AC50 (Cytochrome P450 2D6) is reported as “inconclusive” and the AC50 (Cytochrome P450 3A4) is reported as 6.31 µM (inconclusive).
In the case of `Cc1ccc(S(=O)(=O)c2nc(-c3ccccc3)oc2NCCN2CCOCC2)cc1`, the IC50 [1] is reported as > 79.4 µM (inactive), the IC50 [2] is reported as > 79.4 µM (inactive) and the IC50 [3] is reported as 75.3 µM (active).
With `CC(=O)O[C@H]1C[C@H](O[C@H]2[C@@H](O)C[C@H](O[C@H]3[C@@H](O)C[C@H](O[C@H]4CC[C@@]5(C)[C@H](CC[C@@H]6[C@@H]5C[C@@H](O)[C@]5(C)[C@@H](C7=CC(=O)OC7)CC[C@]65O)C4)O[C@@H]3C)O[C@@H]2C)O[C@H](C)[C@H]1O[C@@H]1O[C@H](CO)[C@@H](O)[C@H](O)[C@H]1O` [LANATOSIDE C] the IC50 (Vero [4]) was > 25 µM (active), the AC50 (Paired box protein Pax-8) was 0.801 µM (active) and the CC50 (Vero [5]) was 0.65 µM (active).
In the case of `O=C(NCc1ccco1)c1ccc2ccccc2n1`, the IC50 [1] is reported as > 79.4 µM (inactive), the IC50 [2] is reported as > 79.4 µM (inactive) and the IC50 [3] is reported as > 79.4 µM (inactive).
With `COc1ccc(C(=O)Nc2nnc(S(=O)(=O)N3CCOCC3)s2)cc1` the IC50 [6] was > 80 µM (inactive).
In the case of `COc1cccc(OCc2cc(C(=O)NCc3cnc4ccccn34)no2)c1`, the IC50 (HEK293 [7]) is reported as 18.9 µM (active), the EC50 (HEK293 [8]) is reported as 12.9 µM (active) and the IC50 (HEK293 [9]) is reported as > 20 µM (inactive). For the same compound, the IC50 (HEK293 [10]) was > 20 µM (inactive), the IC50 (HEK293 [11]) was > 20 µM (inactive) and the EC50 [12] was > 20 µM (inactive).
With `CC(C)CNC(=O)c1nc(-c2ccccc2)n(-c2ccccc2)n1` the AC50 (Cytochrome P450 2D6) was “inconclusive”, the AC50 (Cytochrome P450 2C9) was 39.8 µM (inconclusive) and the AC50 (Cytochrome P450 2C19) was 39.8 µM (inconclusive). For the same compound, the AC50 (Cytochrome P450 1A2) was 28.2 µM (inconclusive).
For `CCC(=O)c1ccc(OCc2ccc(C(=O)OC)cc2)c(OC)c1`, the AC50 (Cytochrome P450 2D6) was “inconclusive”, the AC50 (Cytochrome P450 2C9) was 8.91 µM (inconclusive) and the AC50 (Cytochrome P450 1A2) was 6.31 µM (inconclusive).
For `Cc1ccc(-n2c(C)cc(/C=c3/sc4nc5ccccc5n4c3=O)c2C)cc1`, the IC50 (HEK293 [7]) was 0.703 µM (active), the EC50 (HEK293 [8]) was 2.95 µM (active) and the IC50 (HEK293 [9]) was 0.48 µM (active). For the same compound, the IC50 (HEK293 [10]) was > 20 µM (inactive), the IC50 (HEK293 [11]) was > 20 µM (inactive) and the EC50 [13] was > 112 µM (not active). The EC50 [14] was > 112 µM (not active) and the EC50 [12] was 0.49 µM (active).
In the case of `COc1ccc(/C=C2/C(=O)NC(=O)N(C3CCCCC3)C2=O)cc1CSc1ccccn1`, the AC50 [15] is reported as 10 µM (active).
